Source: PubChem BioAssay (NCI)
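Cells were grown in 96-well plates and exposed to each compound for 48 hours at five concentrations; endpoints were interpolated linearly between bracketing concentrations, or set to the highest concentration if not reached. TGI is the concentration that stops growth completely.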

What was measured:
Test in all cases: NCI-60 cell line screen, 48 h
OVCAR-8 ovarian = test system: OVCAR-8 ovarian
SF-539 CNS = test system: SF-539 CNS
MDA-N = test system: MDA-N
MCF7 breast = test system: MCF7 breast
SK-MEL-2 melanoma = test system: SK-MEL-2 melanoma
HS 578T breast = test system: HS 578T breast
HCT-15 colon = test system: HCT-15 colon
IGROV1 ovarian = test system: IGROV1 ovarian
NCI-H226 lung = test system: NCI-H226 lung
EKVX NSCLC = test system: EKVX NSCLC
SK-OV-3 ovarian = test system: SK-OV-3 ovarian
BT-549 breast = test system: BT-549 breast
OVCAR-3 ovarian = test system: OVCAR-3 ovarian
K-562 leukemia = test system: K-562 leukemia
MALME-3M melanoma = test system: MALME-3M melanoma
A549 NSCLC = test system: A549 NSCLC
HT29 colon = test system: HT29 colon
MDA-MB-435 = test system: MDA-MB-435
CCRF-CEM leukemia = test system: CCRF-CEM leukemia
NCI-H23 lung = test system: NCI-H23 lung
RPMI-8226 leukemia = test system: RPMI-8226 leukemia
T-47D breast = test system: T-47D breast
M14 melanoma = test system: M14 melanoma
KM12 colon = test system: KM12 colon
UACC-62 melanoma = test system: UACC-62 melanoma
NCI-H460 lung = test system: NCI-H460 lung
SNB-19 CNS = test system: SNB-19 CNS
ACHN renal = test system: ACHN renal
MOLT-4 leukemia = test system: MOLT-4 leukemia
HL-60(TB) leukemia = test system: HL-60(TB) leukemia
U251 CNS = test system: U251 CNS
HOP-92 NSCLC = test system: HOP-92 NSCLC
OVCAR-4 ovarian = test system: OVCAR-4 ovarian
SF-268 CNS = test system: SF-268 CNS
OVCAR-5 ovarian = test system: OVCAR-5 ovarian
SK-MEL-5 melanoma = test system: SK-MEL-5 melanoma
LOX IMVI melanoma = test system: LOX IMVI melanoma
RXF 393 renal = test system: RXF 393 renal
DU-145 prostate = test system: DU-145 prostate
SN12C renal = test system: SN12C renal
HCC-2998 colon = test system: HCC-2998 colon
SNB-75 CNS = test system: SNB-75 CNS
UACC-257 melanoma = test system: UACC-257 melanoma
PC-3 prostate = test system: PC-3 prostate
SF-295 CNS = test system: SF-295 CNS
SW-620 colon = test system: SW-620 colon
A498 renal = test system: A498 renal
SK-MEL-28 melanoma = test system: SK-MEL-28 melanoma
MDA-MB-231 breast = test system: MDA-MB-231 breast
CAKI-1 renal = test system: CAKI-1 renal
UO-31 renal = test system: UO-31 renal
NCI-H522 lung = test system: NCI-H522 lung
HCT-116 colon = test system: HCT-116 colon
NCI/ADR-RES ovarian = test system: NCI/ADR-RES ovarian
786-0 renal = test system: 786-0 renal

`CCOC(=O)C1(C#N)C(=O)c2cc[n+](CC[n+]3ccc4c(c3)C(=O)C(C#N)(C(=O)OCC)C4=O)cc2C1=O` (stereo not given) showed a TGI (OVCAR-8 ovarian) of over 100 µM, a TGI (SF-539 CNS) of over 100 µM and a TGI (MDA-N) of over 100 µM. The TGI (MCF7 breast) was over 100 µM, the TGI (SK-MEL-2 melanoma) was over 100 µM and the TGI (HS 578T breast) was over 100 µM. It also gave a TGI (HCT-15 colon) of over 100 µM, a TGI (IGROV1 ovarian) of over 100 µM and a TGI (NCI-H226 lung) of over 100 µM. For the same compound, the TGI (EKVX NSCLC) was over 100 µM, the TGI (SK-OV-3 ovarian) was over 100 µM and the TGI (BT-549 breast) was over 100 µM. It also gave a TGI (OVCAR-3 ovarian) of over 100 µM, a TGI (K-562 leukemia) of over 100 µM and a TGI (MALME-3M melanoma) of over 100 µM. It also gave a TGI (A549 NSCLC) of over 100 µM, a TGI (HT29 colon) of over 100 µM and a TGI (MDA-MB-435) of over 100 µM. For the same compound, the TGI (CCRF-CEM leukemia) was over 100 µM, the TGI (NCI-H23 lung) was over 100 µM and the TGI (RPMI-8226 leukemia) was over 100 µM. For the same compound, the TGI (T-47D breast) was over 100 µM, the TGI (M14 melanoma) was over 100 µM and the TGI (KM12 colon) was over 100 µM. It also gave a TGI (UACC-62 melanoma) of over 100 µM, a TGI (NCI-H460 lung) of over 100 µM and a TGI (SNB-19 CNS) of over 100 µM. It also gave a TGI (ACHN renal) of over 100 µM, a TGI (MOLT-4 leukemia) of over 100 µM and a TGI (HL-60(TB) leukemia) of over 100 µM. The TGI (U251 CNS) was over 100 µM, the TGI (HOP-92 NSCLC) was over 100 µM and the TGI (OVCAR-4 ovarian) was over 100 µM. The TGI (SF-268 CNS) was over 100 µM, the TGI (OVCAR-5 ovarian) was over 100 µM and the TGI (SK-MEL-5 melanoma) was 38.5 µM. It also gave a TGI (LOX IMVI melanoma) of over 100 µM, a TGI (RXF 393 renal) of over 100 µM and a TGI (DU-145 prostate) of over 100 µM. The TGI (SN12C renal) was over 100 µM, the TGI (HCC-2998 colon) was over 100 µM and the TGI (SNB-75 CNS) was over 100 µM. For the same compound, the TGI (UACC-257 melanoma) was over 100 µM, the TGI (PC-3 prostate) was over 100 µM and the TGI (SF-295 CNS) was over 100 µM. The TGI (SW-620 colon) was over 100 µM, the TGI (A498 renal) was over 100 µM and the TGI (SK-MEL-28 melanoma) was over 100 µM. It also gave a TGI (MDA-MB-231 breast) of over 100 µM, a TGI (CAKI-1 renal) of over 100 µM and a TGI (UO-31 renal) of over 100 µM. The TGI (NCI-H522 lung) was over 100 µM, the TGI (HCT-116 colon) was over 100 µM and the TGI (NCI/ADR-RES ovarian) was over 100 µM. For the same compound, the TGI (786-0 renal) was over 100 µM.
